The values below come from ChEMBL document CHEMBL5614413, “Design, synthesis and biological evaluation of amphiphilic benzopyran derivatives as potent antibacterial agents against multidrug-resistant bacteria” (Eur J Med Chem, 2024).

In the test the test system is Staphylococcus aureus. The experiment in a line: Drug resistance, ratio of MIC for methicillin-resistant Staphylococcus aureus ATCC 43300 after 20 passages to MIC for methicillin-resistant Staphylococcus aureus ATCC 43300 during first exposure. It is filed as functional.

`CCCCN(CCCC)CCCNCCCOc1c(C(C)=O)ccc2c1C=CC(C)(CCC=C(C)C)O2` (stereo unspecified): the Ratio is recorded as 2.
